One experiment concerns H-125 or OCI-AML3 cells. Put plainly: Cell viability (MTS) assay, simultaneous P15 peptide + cytostatic drug, 72 hours. The format is cell-based, human. As for the experimental part:
Finally, the cell viability and the IC50 values were determined as above described in this invention.

A further experiment deals with H-125 cells. Put plainly: Cell viability (MTS) assay, sequential: P15 pre-treatment, then cytostatic drug.
Experiment [1] relates to H-125 or OCI-AML3 tumor cells. Briefly: Cancer animal model, human tumor xenografted in nude mice, simultaneous administration. The format is in vivo, nude mice (Nu/Nu, BalBC). The following applies: for interaction with P15, antitumor effect in vivo: administered along with P15, FIG. 4; for antitumor effect (tumor volume): cytostatic 1 mg/kg/day i.p. concomitantly with P15 0.5 mg/kg/day i.p., 5 days, FIG. 1A-1C. As for the experimental part: (§1) The animal model used in this invention was based on the implantation of human tumors in nude mice (Nu/Nu, BalBC). […] After tumor debut (approx. 30 mm^3), treatment was started using the pharmaceutical combination described in this invention. To evaluate the antitumor effect of the pharmaceutical combination, the tumor mass volume was measured and the respective volume was calculated using the formule: V=widght^2×lenght/2.
(§2) After tumor debut, the ingredients of the pharmaceutical combination were administered as follow: The P15 peptide in saline solution was administered intraperitoneal at 0.5 mg/kg/day during 5 days. Concomitantly, intraperitoneal injection of cisplatin (FIG. 1A), or cyclophosphamide (FIG. 1B) or Mitomycin (FIG. 1C) were performed at 1 mg/kg/day in the same frequency. The cytostatic drugs are also solved in saline solution. Tumor volume was registered as described above in this invention.

The subject of experiment [2] is SW948 cells. Put plainly: In vivo chemosensibilization, SW948 tumors in nude mice, sequential administration. To be noted: P15 0.5 mg/kg/day i.p. 5 days, then cytostatic 5 mg/kg/day 5 days, FIG. 2A-2C. As for the experimental part:
The animal model used in this invention was based on the implantation of human tumors in nude mice (Nu/Nu, BalBC). Briefly, 5×10^6 H-125 or OCI-AML3 cells were suspended in Phosphate Buffer Solution (PBS) and inoculated subcutaneously. After tumor debut (approx. 30 mm^3), treatment was started using the pharmaceutical combination described in this invention. To evaluate the antitumor effect of the pharmaceutical combination, the tumor mass volume was measured and the respective volume was calculated using the formule: V=widght^2×lenght/2.
For this purpose, 5×10^6 SW948 cells were implanted in nude mice as previously described in this invention. After tumor debut the pharmaceutical combination was sequentially administered as follow: First, the P15 peptide ingredient was administered intraperitoneal at 0.5 mg/kg/day during 5 days. Subsequently, cisplatin (FIG. 2A), Paclitaxel (FIG. 2B) and doxorubicin (FIG. 2C) were administered at 5 mg/kg/day during further 5 days. […] These findings also provide the evidences that the pharmaceutical combination in this invention is able to bypass the commonly observed intrinsic tumor resistance when the ingredients are sequentially administered.

Experiment [3] deals with SW948 cells. Briefly: Cell viability (MTS) assay, P15 pre-treatment on intrinsic drug-refractory tumor cells. It is filed as cell-based, human.
The next experiment deals with OCI-AML3 cells. Put plainly: Animal model of AML, P15 + anti-leukemic chemotherapeutics. It is filed as in vivo, nude mice (Nu/Nu, BalBC). The following applies: combination with P15, animal model of AML; FIG. 3. The protocol:
as §1, §2

Where [4] appears, read: H-125 or OCI-AML3 cells, 72 hours, simultaneous P15 50 μM, read-out: IC50, Cytostatic drug + P15 (50 μM).
Where [5] appears, read: Homo sapiens, H-125 or OCI-AML3 cells, 72 hours, no P15, read-out: IC50, Cytostatic drug alone.
Where [6] appears, read: read-out: IC50, Cytostatic drug + P15 (10 μM), H-125 or OCI-AML3 cells, 72 hours, simultaneous P15 10 μM.
[7] abbreviates: Homo sapiens, NCI-H125, read-out: IC50, Cytostatic drug alone.
The mark [8] stands for this setting: H-125 or OCI-AML3 cells, 72 hours, no P15, read-out: IC50, Cytostatic drug alone.
[9] abbreviates: read-out: IC50, Cytostatic drug alone, H-125 cells, 72 hours, no P15 pre-treatment.
Setting [10] is: Homo sapiens, P15 pre-treatment, read-out: IC50, Cytostatic drug + P15 pre-treatment.
Setting [11] is: Homo sapiens, no P15 pre-treatment, read-out: IC50, Cytostatic drug alone.

pIC50: −log10 of the molar value. Where two headings read alike, the source gives them in different places.

With `O=c1[nH]cc(F)c(=O)[nH]1` [5-Fluorouracil, 5-fluorouracil], the pIC50 with H-125 or OCI-AML3 cells (setting [4]) is 7.22; in the experiment with H-125 or OCI-AML3 cells (setting [5]), 5.92; in the experiment with H-125 or OCI-AML3 cells (setting [6]) it was 6.38; with H-125 cells (setting [7]) it was 5.92.
For `N.N.O=C([O-])C1(C(=O)[O-])CCC1.[Pt+2]` [Carboplatin, carboplatin], the “interaction with P15, antitumor effect in vivo” value (shortened to “interaction with P15”) in experiment [1] is listed as “synergistic interactions”. Also, the pIC50 in the experiment on H-125 or OCI-AML3 cells (setting [8]) is 6.19; in the experiment on H-125 or OCI-AML3 cells (setting [4]), 7.44; in the experiment on H-125 or OCI-AML3 cells (setting [6]) it was 7.15; in the experiment with H-125 cells (setting [9]) it was 6.35.
As to `N.N.[Cl][Pt][Cl]` [Cisplatin, cisplatin], the “antitumor effect (tumor volume)” value in experiment [1] was “complete tumor regression”. In the experiment with SW948 cells [2], the “chemosensibilization in vivo (tumor response to cytostatic)” value (shortened to “chemosensibilization in vivo”) is given as “revert the chemorefractory phenotype”. Moreover, the pIC50 in the experiment on SW948 cells [3] (P15 pre-treatment, read-out: IC50, Cytostatic drug + P15 pre-treatment) was 3.92; in the experiment on SW948 cells [3] (no P15 pre-treatment, read-out: IC50, Cytostatic drug alone) it was no more than 3.00; in the experiment with H-125 or OCI-AML3 cells (setting [8]), 6.14; with H-125 or OCI-AML3 cells (setting [4]), 7.40; with H-125 or OCI-AML3 cells (setting [6]), 6.28; in the experiment on H-125 cells (setting [9]), 6.14.
Take `O=P1(N(CCCl)CCCl)NCCCO1` (stereo not drawn) [Cyclophosphamide, cyclophosphamide]: in experiment [1], the “antitumor effect (tumor volume)” value is reported as “complete tumor regression”. The pIC50 in the experiment on H-125 or OCI-AML3 cells (Homo sapiens, 72 h, read-out: IC50, Cytostatic drug alone) is 5.62; with H-125 or OCI-AML3 cells (read-out: IC50, Cytostatic drug + P15 (10 μM)), 6.00; in the experiment on H-125 or OCI-AML3 cells (read-out: IC50, Cytostatic drug + P15 (50 μM)) it was 7.07; in the experiment on H-125 cells (setting [7]) it was 5.62; in the experiment with H-125 cells (read-out: IC50, Cytostatic drug + P15 pre-treatment), 7.00.
As to `Nc1ccn([C@@H]2O[C@H](CO)[C@@H](O)[C@@H]2O)c(=O)n1` [Cytarabine (AraC), cytarabine], the “interaction with P15” value with OCI-AML3 cells is on record as “great synergistic interaction”. The pIC50 was 7.17 with H-125 or OCI-AML3 cells (setting [4]), 6.00 in the experiment on H-125 or OCI-AML3 cells (setting [5]), 6.96 in the experiment on H-125 or OCI-AML3 cells (setting [6]) and 6.01 with H-125 cells (setting [7]).
In the case of `COc1cccc2c1C(=O)c1c(O)c3c(c(O)c1C2=O)C[C@@](O)(C(=O)CO)C[C@@H]3O[C@H]1C[C@H](N)[C@H](O)[C@H](C)O1` [Doxorubicin, doxorubicin], the “chemosensibilization in vivo” value in the experiment on SW948 cells [2] is recorded as “revert the chemorefractory phenotype”. The pIC50 in the experiment on SW948 cells [3] (setting [10]) is 3.49; with SW948 cells [3] (setting [11]), no more than 3.00; in the experiment on H-125 or OCI-AML3 cells (setting [4]) it was 7.12; with H-125 or OCI-AML3 cells (setting [5]), 6.37; in the experiment on H-125 or OCI-AML3 cells (setting [6]), 6.70; with H-125 cells (setting [7]), 6.37.
As for `COc1cc([C@@H]2c3cc4c(cc3[C@@H](O[C@@H]3O[C@@H]5CO[C@@H](C)O[C@H]5[C@H](O)[C@H]3O)[C@H]3COC(=O)[C@H]23)OCO4)cc(OC)c1O` [Etoposide, etoposide], in experiment [1], the “interaction with P15” value was “synergistic interactions”. In addition, the pIC50 in the experiment on H-125 or OCI-AML3 cells (setting [4]) is 7.70; in the experiment on H-125 or OCI-AML3 cells (setting [5]), 6.11; with H-125 or OCI-AML3 cells (setting [6]), 7.22; in the experiment with H-125 cells (setting [7]), 6.25.
Turning to `Nc1nc(F)nc2c1ncn2[C@@H]1O[C@H](CO)[C@@H](O)[C@@H]1O` [Fludarabine, fludarabine], the negative-log IC50 (pIC50) in the experiment with H-125 or OCI-AML3 cells (setting [4]) is 7.30; in the experiment with H-125 or OCI-AML3 cells (setting [5]), 6.06; with H-125 or OCI-AML3 cells (setting [6]), 7.02; in the experiment on H-125 cells (setting [7]), 6.06.
Turning to `CO[C@@]12[C@H](COC(N)=O)C3=C(C(=O)C(C)=C(N)C3=O)N1C[C@@H]1N[C@@H]12` [Mitomycin C, mitomycin C], the “antitumor effect (tumor volume)” value in experiment [1] is on record as “complete tumor regression”. The pIC50 is 8.05 in the experiment on H-125 or OCI-AML3 cells (setting [4]), 6.00 in the experiment on H-125 or OCI-AML3 cells (setting [5]), 7.03 with H-125 or OCI-AML3 cells (setting [6]) and 6.00 in the experiment on H-125 cells (setting [7]).
For `O=C1c2c(O)ccc(O)c2C(=O)c2c(NCCNCCO)ccc(NCCNCCO)c21` [Mitoxantrone, mitoxantrone], in the experiment with OCI-AML3 cells, the “interaction with P15” value is recorded as “great synergistic interaction”. The pIC50 in the experiment on H-125 or OCI-AML3 cells (setting [4]) was 7.49; with H-125 or OCI-AML3 cells (setting [5]) it was 6.12; in the experiment on H-125 or OCI-AML3 cells (setting [6]), 7.19; in the experiment on H-125 cells (setting [7]) it was 6.15.
For `CC(=O)O[C@H]1C(=O)[C@@]2(C)[C@H]([C@H](OC(=O)c3ccccc3)[C@]3(O)C[C@H](OC(=O)[C@H](O)[C@@H](NC(=O)c4ccccc4)c4ccccc4)C(C)=C1C3(C)C)[C@]1(OC(C)=O)CO[C@@H]1C[C@@H]2O` [Paclitaxel, paclitaxel], the “chemosensibilization in vivo” value in the experiment on SW948 cells [2] is given as “revert the chemorefractory phenotype”. Also, the negative logarithm of the IC50 (pIC50) in the experiment on SW948 cells [3] (setting [10]) was 4.01; in the experiment with SW948 cells [3] (setting [11]), no more than 3.00; with H-125 or OCI-AML3 cells (setting [4]), 8.52; in the experiment with H-125 or OCI-AML3 cells (setting [5]), 7.77; with H-125 or OCI-AML3 cells (setting [6]), 8.10; in the experiment on H-125 cells (setting [7]), 7.77.
As for `CC(C)C[C@H](NC(=O)[C@H](Cc1ccccc1)NC(=O)c1cnccn1)B(O)O` [Velcade, Bortezomib], the pIC50 is 6.15 in the experiment with H-125 or OCI-AML3 cells (setting [4]), 5.70 in the experiment with H-125 or OCI-AML3 cells (setting [5]), 5.92 in the experiment with H-125 or OCI-AML3 cells (setting [6]) and 5.70 with H-125 cells (setting [7]).
As to `CC[C@]1(O)C[C@H]2CN(CCc3c([nH]c4ccccc34)[C@@](C(=O)OC)(c3cc4c(cc3OC)N(C=O)[C@H]3[C@@](O)(C(=O)OC)[C@H](OC(C)=O)[C@]5(CC)C=CCN6CC[C@]43[C@@H]65)C2)C1` [Vincristin, vincristin], the pIC50 is 8.10 with H-125 or OCI-AML3 cells (setting [4]), 6.07 with H-125 or OCI-AML3 cells (setting [5]), 7.00 in the experiment with H-125 or OCI-AML3 cells (setting [6]) and 6.07 in the experiment on H-125 cells (setting [7]).

The values are drawn from patent publication US9278118B2, “Pharmaceutical combination for the treatment and/or chemosensibilization of refractory tumors to anticancer drugs” (Centro de Ingenieria Genetica Y Biotecnologia, priority 2006, dated 2016).
